Source: the NIST ThermoML archive (doi:10.1016/j.tca.2012.05.036)
Numbers after ± are expanded uncertainties.

What was measured:
[1] = refractive index (Na D-line) (dimensionless); xn = mol fraction of the nth substance listed; details: 101 kPa, Liquid, Standard Abbe refractometry
[2] = relative permittivity at zero frequency (dimensionless); xn = mol fraction of the nth substance listed; details: 101 kPa, Liquid, Parallel plate capacitor
[3] = 101.33 kPa, Liquid, Vibrating tube method
[4] = refractive index (Na D-line) (dimensionless); details: 101.33 kPa, Liquid, Standard Abbe refractometry
[5] = relative permittivity at zero frequency (dimensionless); details: 101.33 kPa, Liquid, Parallel plate capacitor

Compound: CCCCCO [pentan-1-ol] + CCCCCCCC
- refractive index ([1]; 293.15 K, x1 = 0.1008): 1.3981 ± 0.0005
- refractive index ([1]; 293.15 K, x1 = 0.2034): 1.3988 ± 0.0005
- refractive index ([1]; 293.15 K, x1 = 0.3004): 1.3997 ± 0.0005
- refractive index ([1]; 293.15 K, x1 = 0.3808): 1.4005 ± 0.0005
- refractive index ([1]; 293.15 K, x1 = 0.4885): 1.4019 ± 0.0005
- refractive index ([1]; 293.15 K, x1 = 0.593): 1.4033 ± 0.0005
- refractive index ([1]; 293.15 K, x1 = 0.6992): 1.4047 ± 0.0005
- refractive index ([1]; 293.15 K, x1 = 0.7922): 1.4063 ± 0.0005
- refractive index ([1]; 293.15 K, x1 = 0.8967): 1.4082 ± 0.0005
- refractive index ([1]; 298.15 K, x1 = 0.1008): 1.3965 ± 0.0005
- refractive index ([1]; 298.15 K, x1 = 0.2034): 1.3973 ± 0.0005
- refractive index ([1]; 298.15 K, x1 = 0.3004): 1.3982 ± 0.0005
- refractive index ([1]; 298.15 K, x1 = 0.3808): 1.3991 ± 0.0005
- refractive index ([1]; 298.15 K, x1 = 0.4885): 1.4004 ± 0.0005
- refractive index ([1]; 298.15 K, x1 = 0.593): 1.4019 ± 0.0005
- refractive index ([1]; 298.15 K, x1 = 0.6992): 1.4034 ± 0.0005
- refractive index ([1]; 298.15 K, x1 = 0.7922): 1.405 ± 0.0005
- refractive index ([1]; 298.15 K, x1 = 0.8967): 1.407 ± 0.0005
- refractive index ([1]; 303.15 K, x1 = 0.1008): 1.3937 ± 0.0005
- refractive index ([1]; 303.15 K, x1 = 0.2034): 1.3946 ± 0.0005
- refractive index ([1]; 303.15 K, x1 = 0.3004): 1.3955 ± 0.0005
- refractive index ([1]; 303.15 K, x1 = 0.3808): 1.3964 ± 0.0005
- refractive index ([1]; 303.15 K, x1 = 0.4885): 1.3979 ± 0.0005
- refractive index ([1]; 303.15 K, x1 = 0.593): 1.3993 ± 0.0005
- refractive index ([1]; 303.15 K, x1 = 0.6992): 1.4008 ± 0.0005
- refractive index ([1]; 303.15 K, x1 = 0.7922): 1.4026 ± 0.0005
- refractive index ([1]; 303.15 K, x1 = 0.8967): 1.4046 ± 0.0005
- relative permittivity at zero frequency ([2]; 288.15 K, x1 = 0.1008): 2.104 ± 0.13
- relative permittivity at zero frequency ([2]; 288.15 K, x1 = 0.2034): 2.331 ± 0.14
- relative permittivity at zero frequency ([2]; 288.15 K, x1 = 0.3004): 2.766 ± 0.17
- relative permittivity at zero frequency ([2]; 288.15 K, x1 = 0.3808): 3.405 ± 0.2
- relative permittivity at zero frequency ([2]; 288.15 K, x1 = 0.4885): 4.798 ± 0.29
- relative permittivity at zero frequency ([2]; 288.15 K, x1 = 0.593): 6.675 ± 0.4
- relative permittivity at zero frequency ([2]; 288.15 K, x1 = 0.6992): 8.743 ± 0.53
- relative permittivity at zero frequency ([2]; 288.15 K, x1 = 0.7922): 11.143 ± 0.67
- relative permittivity at zero frequency ([2]; 288.15 K, x1 = 0.8967): 13.734 ± 0.82
- relative permittivity at zero frequency ([2]; 293.15 K, x1 = 0.1008): 2.1 ± 0.13
- relative permittivity at zero frequency ([2]; 293.15 K, x1 = 0.2034): 2.321 ± 0.14
- relative permittivity at zero frequency ([2]; 293.15 K, x1 = 0.3004): 2.731 ± 0.16
- relative permittivity at zero frequency ([2]; 293.15 K, x1 = 0.3808): 3.32 ± 0.2
- relative permittivity at zero frequency ([2]; 293.15 K, x1 = 0.4885): 4.601 ± 0.28
- relative permittivity at zero frequency ([2]; 293.15 K, x1 = 0.593): 6.358 ± 0.38
- relative permittivity at zero frequency ([2]; 293.15 K, x1 = 0.6992): 8.332 ± 0.5
- relative permittivity at zero frequency ([2]; 293.15 K, x1 = 0.7922): 10.654 ± 0.64
- relative permittivity at zero frequency ([2]; 293.15 K, x1 = 0.8967): 13.179 ± 0.79
- relative permittivity at zero frequency ([2]; 298.15 K, x1 = 0.1008): 2.096 ± 0.13
- relative permittivity at zero frequency ([2]; 298.15 K, x1 = 0.2034): 2.312 ± 0.14
- relative permittivity at zero frequency ([2]; 298.15 K, x1 = 0.3004): 2.699 ± 0.16
- relative permittivity at zero frequency ([2]; 298.15 K, x1 = 0.3808): 3.243 ± 0.2
- relative permittivity at zero frequency ([2]; 298.15 K, x1 = 0.4885): 4.421 ± 0.27
- relative permittivity at zero frequency ([2]; 298.15 K, x1 = 0.593): 6.053 ± 0.36
- relative permittivity at zero frequency ([2]; 298.15 K, x1 = 0.6992): 7.936 ± 0.48
- relative permittivity at zero frequency ([2]; 298.15 K, x1 = 0.7922): 10.175 ± 0.61
- relative permittivity at zero frequency ([2]; 298.15 K, x1 = 0.8967): 12.634 ± 0.76
- relative permittivity at zero frequency ([2]; 303.15 K, x1 = 0.1008): 2.092 ± 0.13
- relative permittivity at zero frequency ([2]; 303.15 K, x1 = 0.2034): 2.304 ± 0.14
- relative permittivity at zero frequency ([2]; 303.15 K, x1 = 0.3004): 2.669 ± 0.16
- relative permittivity at zero frequency ([2]; 303.15 K, x1 = 0.3808): 3.173 ± 0.19
- relative permittivity at zero frequency ([2]; 303.15 K, x1 = 0.4885): 4.257 ± 0.26
- relative permittivity at zero frequency ([2]; 303.15 K, x1 = 0.593): 5.774 ± 0.35
- relative permittivity at zero frequency ([2]; 303.15 K, x1 = 0.6992): 7.559 ± 0.45
- relative permittivity at zero frequency ([2]; 303.15 K, x1 = 0.7922): 9.712 ± 0.58
- relative permittivity at zero frequency ([2]; 303.15 K, x1 = 0.8967): 12.103 ± 0.73
- relative permittivity at zero frequency ([2]; 308.15 K, x1 = 0.1008): 2.088 ± 0.12
- relative permittivity at zero frequency ([2]; 308.15 K, x1 = 0.2034): 2.297 ± 0.14
- relative permittivity at zero frequency ([2]; 308.15 K, x1 = 0.3004): 2.643 ± 0.16
- relative permittivity at zero frequency ([2]; 308.15 K, x1 = 0.3808): 3.111 ± 0.19
- relative permittivity at zero frequency ([2]; 308.15 K, x1 = 0.4885): 4.109 ± 0.25
- relative permittivity at zero frequency ([2]; 308.15 K, x1 = 0.593): 5.516 ± 0.33
- relative permittivity at zero frequency ([2]; 308.15 K, x1 = 0.6992): 7.204 ± 0.43
- relative permittivity at zero frequency ([2]; 308.15 K, x1 = 0.7922): 9.267 ± 0.56
- relative permittivity at zero frequency ([2]; 308.15 K, x1 = 0.8967): 11.585 ± 0.69

Compound: CCCCCO [pentan-1-ol]
- mass density ([3]; 288.15 K): 818.49 ± 0.31 kg/m3
- mass density ([3]; 293.15 K): 814.82 ± 0.31 kg/m3
- mass density ([3]; 298.15 K): 811.19 ± 0.31 kg/m3
- mass density ([3]; 303.15 K): 807.5 ± 0.31 kg/m3
- mass density ([3]; 308.15 K): 803.86 ± 0.31 kg/m3
- refractive index ([4]; 293.15 K): 1.41001 ± 0.00053
- refractive index ([4]; 298.15 K): 1.4084 ± 0.0005
- refractive index ([4]; 303.15 K): 1.4065 ± 0.0005
- relative permittivity at zero frequency ([5]; 288.15 K): 16.334 ± 0.98
- relative permittivity at zero frequency ([5]; 293.15 K): 15.736 ± 0.94
- relative permittivity at zero frequency ([5]; 298.15 K): 15.144 ± 0.91
- relative permittivity at zero frequency ([5]; 303.15 K): 14.565 ± 0.87
- relative permittivity at zero frequency ([5]; 308.15 K): 13.998 ± 0.84

Compound: CCCCCCCC [octane]
- mass density ([3]; 288.15 K): 706.81 ± 0.32 kg/m3
- mass density ([3]; 293.15 K): 702.77 ± 0.32 kg/m3
- mass density ([3]; 298.15 K): 698.73 ± 0.32 kg/m3
- mass density ([3]; 303.15 K): 694.7 ± 0.32 kg/m3
- mass density ([3]; 308.15 K): 690.67 ± 0.32 kg/m3
- refractive index ([4]; 293.15 K): 1.3991 ± 0.0005
- refractive index ([4]; 298.15 K): 1.3967 ± 0.0005
- refractive index ([4]; 303.15 K): 1.3945 ± 0.0005
- relative permittivity at zero frequency ([5]; 288.15 K): 1.975 ± 0.12
- relative permittivity at zero frequency ([5]; 293.15 K): 1.968 ± 0.12
- relative permittivity at zero frequency ([5]; 298.15 K): 1.961 ± 0.12
- relative permittivity at zero frequency ([5]; 303.15 K): 1.954 ± 0.12
- relative permittivity at zero frequency ([5]; 308.15 K): 1.947 ± 0.12
